Measurements reported in PubChem BioAssay AID256 (DTP/NCI, 2004).
“And” between values parts separate entries of the source, which are not always exact repeats. Equal values may be shown once. Inconclusive results and toxic doses are left out. The calls were made as follows: active = survival T/C of 150% or more; inactive = T/C below 125% in these data. Residues, ends and D or L forms follow the SMILES beside them. *: point of attachment. Cbz = O=C(OCc1ccccc1)*; OBn = c1ccc(CO*)cc1

Tested on: CD2F1 mice, L1210 leukemia ip, survival T/C
Experiment: NCI In Vivo Anticancer Drug Screen. Data for tumor model L1210 Leukemia (intraperitoneal) in CD2F1 (CDF1) mice
Conditions: higher = longer survival
Method in brief: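 Compound-dosed mice with transplantable tumor versus matched vehicle controls; endpoint ratio T/C reported.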

[1] = endpoint: mean survival time, dose: 100.0 mg/kg/injection, schedule: Q04DX003 (ip), vehicle: saline
[2] = endpoint: mean survival time, dose: 200.0 mg/kg/injection, schedule: Q04DX003 (ip), vehicle: saline
[3] = endpoint: mean survival time, dose: 400.0 mg/kg/injection, schedule: Q04DX003 (ip), vehicle: saline
[4] = endpoint: mean survival time, dose: 100.0 mg/kg/injection, schedule: Q04DX003 (ip), vehicle: saline with Tween-80
[5] = endpoint: mean survival time, dose: 200.0 mg/kg/injection, schedule: Q04DX003 (ip), vehicle: saline with Tween-80
[6] = endpoint: mean survival time, dose: 400.0 mg/kg/injection, schedule: Q04DX003 (ip), vehicle: saline with Tween-80
[7] = endpoint: mean survival time, dose: 100.0 mg/kg/injection, schedule: Q01DX001 (ip), vehicle: saline with Tween-80
[8] = endpoint: mean survival time, dose: 200.0 mg/kg/injection, schedule: Q01DX001 (ip), vehicle: saline with Tween-80
[9] = endpoint: mean survival time, dose: 100.0 mg/kg/injection, schedule: Q01DX009 (ip), vehicle: saline with Tween-80
[10] = endpoint: mean survival time, dose: 200.0 mg/kg/injection, schedule: Q01DX009 (ip), vehicle: saline with Tween-80
[11] = endpoint: mean survival time, dose: 100.0 mg/kg/injection, schedule: Q04DX002 (ip), vehicle: saline with Tween-80
[12] = endpoint: mean survival time, dose: 200.0 mg/kg/injection, schedule: Q04DX002 (ip), vehicle: saline with Tween-80
[13] = endpoint: mean survival time, dose: 400.0 mg/kg/injection, schedule: Q04DX002 (ip), vehicle: saline with Tween-80
[14] = endpoint: mean survival time, dose: 400.0 mg/kg/injection, schedule: Q01DX009 (ip), vehicle: saline with Tween-80
[15] = endpoint: mean survival time, dose: 25.0 mg/kg/injection, schedule: Q01DX009 (ip), vehicle: saline

Measured: T/C

CC[n+]1c(-c2ccccc2)c2cc(N)ccc2c2ccc(N)cc21
inactive: endpoint: mean survival time, dose: 1.0 mg/kg/injection, schedule: Q01DX009 (ip), vehicle: water 106 % of control | endpoint: mean survival time, dose: 2.0 mg/kg/injection, schedule: Q01DX009 (ip), vehicle: water 112 % of control | endpoint: mean survival time, dose: 2.5 mg/kg/injection, schedule: Q01DX005 (ip), vehicle: water 101 % of control | endpoint: mean survival time, dose: 4.0 mg/kg/injection, schedule: Q01DX009 (ip), vehicle: water 116 % of control | endpoint: mean survival time, dose: 5.0 mg/kg/injection, schedule: Q01DX005 (ip), vehicle: water 105 % of control | endpoint: mean survival time, dose: 8.0 mg/kg/injection, schedule: Q01DX009 (ip), vehicle: water 122 % of control | endpoint: mean survival time, dose: 10.0 mg/kg/injection, schedule: Q01DX005 (ip), vehicle: water 114 % of control | endpoint: mean survival time, dose: 16.0 mg/kg/injection, schedule: Q01DX009 (ip), vehicle: water 104 % of control

Cc1cccc(CCc2cccc(C)n2)n1
inactive: [1] 103 % of control | [2] 103 % of control | [3] 103 % of control

CC(C)C(=O)/C=C/c1ccccc1
inactive: [4] 102 % of control | [5] 103 % of control | [6] 102 % of control

C/C=C(/Cl)C(=O)O
inactive: [7] 100 % of control | [8] 101 % of control

CC(C)(C)OC(=O)NNC(c1ccccc1)c1ccccc1
inactive: [9] 101 % of control | [4] 98 % of control | [10] 95 % of control | [5] 95 % of control | [6] 97 % of control

COc1ccccc1NC(=O)Nc1cccc([N+](=O)[O-])c1OC
inactive: [11] 97 % of control | [12] 87 % of control | [13] 94 % of control

O=c1[nH]cc(NCCCc2ccccc2)c(=O)[nH]1
inactive: [4] 102 % of control | [5] 104 % of control | [6] 96 % of control

O=C(CNC(=O)OCc1ccccc1)NCC(=O)OCc1ccccc1 (Cbz-Gly-Gly-OBn)
inactive: [9] 93 % of control | [4] 96 % of control | [10] 92 % of control | [5] 93 % of control | [14] 89 % of control | [6] 93 % of control

CCOC(=O)N1CC2CCC(C1)N2C
inactive: [1] 93 % of control

O=C(NCCCCC(Cl)C(=O)O)c1ccccc1 (stereo not drawn)
inactive: [9] 98 % of control | [10] 100 % of control | [14] 100 % of control

CC1=C(C)C2(C)C1(C)C1(C)C(C)=C(C)C21C (stereo not drawn)
inactive: [4] 96 % of control | [5] 93 % of control | [6] 89 % of control

CCO/C=N/NC(=O)CNC(=O)C=[N+]=[N-]
inactive: [4] 108 % of control | [5] 103 % of control | [6] 108 % of control

Nc1ncnc2c1ncn2C1CC(O)C(CO)O1 (stereo not drawn)
inactive: endpoint: mean survival time, dose: 600.0 mg/kg/injection, schedule: Q03HX024 (ip), vehicle: saline with Tween-80 97 % of control | endpoint: mean survival time, dose: 900.0 mg/kg/injection, schedule: Q03HX024 (ip), vehicle: saline with Tween-80 103 % of control

O=C(CNC(=O)Nc1ccc(F)cc1)N/N=C/c1c(O)ccc2ccccc12
inactive: endpoint: mean survival time, dose: 50.0 mg/kg/injection, schedule: Q01DX009 (ip), vehicle: saline with Tween-80 92 % of control | [9] 96 % of control | [10] 96 % of control

Cc1ccc2c(c1)n([O-])c1cc(Cl)ccc1[n+]2=O
inactive: endpoint: median survival time, dose: 12.5 mg/kg/injection, schedule: Q01DX009 (ip), vehicle: saline with Tween-80 101 % of control and 111 % of control | endpoint: median survival time, dose: 25.0 mg/kg/injection, schedule: Q01DX009 (ip), vehicle: saline with Tween-80 120 % of control | endpoint: median survival time, dose: 30.0 mg/kg/injection, schedule: Q01DX009 (ip), vehicle: saline with Tween-80 108 % of control | endpoint: median survival time, dose: 50.0 mg/kg/injection, schedule: Q01DX009 (ip), vehicle: saline with Tween-80 114 % of control and 112 % of control | endpoint: median survival time, dose: 60.0 mg/kg/injection, schedule: Q01DX009 (ip), vehicle: saline with Tween-80 117 % of control | endpoint: median survival time, dose: 100.0 mg/kg/injection, schedule: Q01DX009 (ip), vehicle: saline with Tween-80 114 % of control and 122 % of control | endpoint: median survival time, dose: 167.0 mg/kg/injection, schedule: Q01DX009 (ip), vehicle: saline with Tween-80 123 % of control | endpoint: median survival time, dose: 200.0 mg/kg/injection, schedule: Q01DX009 (ip), vehicle: saline with Tween-80 124 % of control and 97 % of control | endpoint: median survival time, dose: 278.0 mg/kg/injection, schedule: Q01DX009 (ip), vehicle: saline with Tween-80 121 % of control

O=C(CCCCl)CC(O)(C(F)(F)Cl)C(F)(F)Cl
inactive: [15] 94 % of control | endpoint: mean survival time, dose: 50.0 mg/kg/injection, schedule: Q01DX009 (ip), vehicle: saline 100 % of control | endpoint: mean survival time, dose: 100.0 mg/kg/injection, schedule: Q01DX009 (ip), vehicle: saline 94 % of control

O=C1OC(=O)C2C(c3ccccc3)=C3C(=C(c4ccccc4)C12)c1cccc2cccc3c12 (stereo not drawn)
inactive: [11] 94 % of control | [12] 97 % of control | [13] 94 % of control

Cc1ccc(S(=O)(=O)NC(=O)C(=[N+]=[N-])c2ccc([N+](=O)[O-])cc2)cc1
inactive: endpoint: median survival time, dose: 25.0 mg/kg/injection, schedule: Q04DX002 (ip), vehicle: saline with Tween-80 100 % of control | endpoint: median survival time, dose: 50.0 mg/kg/injection, schedule: Q04DX002 (ip), vehicle: saline with Tween-80 90 % of control | endpoint: median survival time, dose: 100.0 mg/kg/injection, schedule: Q04DX002 (ip), vehicle: saline with Tween-80 90 % of control | endpoint: median survival time, dose: 200.0 mg/kg/injection, schedule: Q04DX002 (ip), vehicle: saline with Tween-80 90 % of control

CNC(=O)OC
inactive: [1] 102 % of control | [2] 110 % of control | [3] 108 % of control

Clc1c(CI)ccc(CI)c1Cl
inactive: endpoint: mean survival time, dose: 25.0 mg/kg/injection, schedule: Q04DX003 (ip), vehicle: saline with Tween-80 95 % of control | endpoint: mean survival time, dose: 50.0 mg/kg/injection, schedule: Q04DX003 (ip), vehicle: saline with Tween-80 97 % of control | [4] 102 % of control

COC(=O)C1N=C1c1ccccc1.COC(=O)C1N=C1c1ccccc1.[Cl][Pd][Cl] (stereo not drawn)
inactive: endpoint: mean survival time, dose: 3.13 mg/kg/injection, schedule: Q04DX003 (ip), vehicle: distilled water + Tween-80 95 % of control | endpoint: mean survival time, dose: 6.25 mg/kg/injection, schedule: Q04DX003 (ip), vehicle: distilled water + Tween-80 103 % of control | endpoint: mean survival time, dose: 12.5 mg/kg/injection, schedule: Q04DX003 (ip), vehicle: distilled water + Tween-80 91 % of control | endpoint: mean survival time, dose: 25.0 mg/kg/injection, schedule: Q04DX003 (ip), vehicle: distilled water + Tween-80 103 % of control | endpoint: mean survival time, dose: 50.0 mg/kg/injection, schedule: Q04DX003 (ip), vehicle: distilled water + Tween-80 101 % of control | endpoint: mean survival time, dose: 100.0 mg/kg/injection, schedule: Q04DX003 (ip), vehicle: distilled water + Tween-80 101 % of control | endpoint: mean survival time, dose: 200.0 mg/kg/injection, schedule: Q04DX003 (ip), vehicle: distilled water + Tween-80 103 % of control

O=C(/C=C/c1ccccc1)c1cccc([N+](=O)[O-])c1
inactive: [11] 91 % of control | [12] 91 % of control | [13] 95 % of control

C/C(CCc1cnc2ccccc2c1)=N/NC(N)=O
inactive: [11] 96 % of control | [12] 88 % of control | [13] 103 % of control

NC(=O)c1nc(C2OC(CO)C(O)C2O)no1 (stereo not drawn)
inactive: endpoint: mean survival time, dose: 12.5 mg/kg/injection, schedule: Q01DX005 (ip), vehicle: water 98 % of control | endpoint: mean survival time, dose: 25.0 mg/kg/injection, schedule: Q01DX005 (ip), vehicle: water 98 % of control | endpoint: mean survival time, dose: 50.0 mg/kg/injection, schedule: Q01DX005 (ip), vehicle: water 108 % of control | endpoint: mean survival time, dose: 100.0 mg/kg/injection, schedule: Q01DX005 (ip), vehicle: water 98 % of control | endpoint: mean survival time, dose: 200.0 mg/kg/injection, schedule: Q01DX005 (ip), vehicle: water 98 % of control

CCCCCCCCCCCCCCCCOCCOCCOCCOCCOCCCCCCCCCCCCCCCC
inactive: [11] 94 % of control | [12] 94 % of control | [13] 98 % of control

O=C1OC2CC3CCC2C13 (stereo not drawn)
inactive: endpoint: mean survival time, dose: 6.25 mg/kg/injection, schedule: Q01DX009 (ip), vehicle: saline 101 % of control | endpoint: mean survival time, dose: 12.5 mg/kg/injection, schedule: Q01DX009 (ip), vehicle: saline 101 % of control | [15] 95 % of control

O=C1OC2C3CC4C2OC(=O)C4C13 (stereo not drawn)
inactive: [9] 102 % of control | [10] 98 % of control | [14] 90 % of control

CCC(=O)Nc1cccc(OC(=O)NC(C)(C)CC(C)(C)C)c1
inactive: [7] 98 % of control | [8] 98 % of control | endpoint: mean survival time, dose: 400.0 mg/kg/injection, schedule: Q01DX001 (ip), vehicle: saline with Tween-80 100 % of control
